Results from patent US20260137696A1, “Compositions Comprising an Inhibitor of Galectin-3” (University of Liverpool, priority 2023, published 2026).

Legend:
[1] = system: ACA19 cells; settings: human, 24 h, 100 uM
Protocol: (§1) The compounds of Formula I and Formula II cytotoxicity in human colon cancer SW620 (FIG. 8A), vascular HUVEC (FIG. 8B) and human melanoma ACA19 (FIG. 9C) cells was assessed in the absence or presence of various concentrations of the compounds of Formula I and Formula II (the chemotherapeutic drug Etoposide, Etop, was also included as positive control) by Lactate dehydrogenase (LDH) release assay.
as §1, with “(ACA19+) cells, which” for “ACA19 (FIG. 9C) cells”
(§2) SW620 and ACA19+ cells (5×10^4 cells/ml) were seeded into 96-well plate in DMEM and incubated at […] 5% CO2 for 24 hr. HUVECs (1.0×10^5 cells/ml) was seeded in EBM medium and incubated for 24-36 hr until they formed a monolayer. Compound inhibitors at different concentrations were then introduced to the cells (10× lysis buffer was included as maximum LDH activity control) for 24 hr. The culture medium was transferred to a new plate and was mixed with equal volume of reaction mixture provided in the kit for 30 min at room temperature before the absorbance was measured at 490 nm (reference 680 nm) by a spectrophotometer.

[2] = system: SW620 cells; settings: human, 24 h, 100 uM
Protocol: as §1
as §1, with “(ACA19+) cells, which” for “ACA19 (FIG. 9C) cells”
as §2

[3] = system: HUVEC cells; settings: human, 24 h, 100 uM
Protocol: as §1
as §1, with “(ACA19+) cells, which” for “ACA19 (FIG. 9C) cells”
as §2

[4] = system: Salmonella typhimurium strain TA98; experiment: Ames test (genotoxicity); type: cell-based
Protocol: (§3) Mutagenic potential of the compound of Formula I was assessed by Ames test in two Salmonella typhimurium strains TA98 and TA100 without and with metabolic activation (S9).
(§4) Effect of the compound inhibitors on genotoxicity was determined using the Salmonella typhimurium strains of TA 98 and TA 100 in the presence and absence of metabolic activation (S9). Each test concentration included the vehicle and positive controls. Briefly, the compounds were serially diluted in 24-well plates with or without the presence metabolic activation system (S9) and was incubated for 90 min at 37° C. in 250 rpm in a orbital shaking incubator. TA98 and TA100 were then introduced to the wells for 90 min. 50 μL aliquots from each well was dispensed into 384 well plates and incubated for 48 hrs at 37° C. in an incubator before positive wells were scored.

[5] = system: Salmonella typhimurium strain TA100; experiment: Ames test (genotoxicity); type: cell-based
Protocol: as §3, §4

Row | Structure (SMILES) | cytotoxicity (LDH release) [1] [%] | cytotoxicity (LDH release) [2] [%] | cytotoxicity (LDH release) [3] [%] | revertant colony count [4] | revertant colony count [5]
1 | COc1cc([C@@H]2c3cc4c(cc3[C@@H](O[C@@H]3O[C@@H]5CO[C@@H](C)O[C@H]5[C@H](O)[C@H]3O)[C@H]3COC(=O)[C@H]23)OCO4)cc(OC)c1O [Etoposide] | ~100 | ~100 | ~100 | – | –
2 | Nc1ccc2cc3ccccc3cc2c1 [Formula 2AA, reference compound] | – | – | – | distinct increase | distinct increase
